Source: paper PMC10726355, “Small Molecule Ligands of the BET-like Bromodomain, SmBRD3, Affect Schistosoma mansoni Survival, Oviposition, and Development” (Journal of Medicinal Chemistry, 2023)

Columns and labels:
SmBRD3(1,2) [1] = target: SmBRD3(1,2) (Schistosoma mansoni, UniProt A0A5K4ESD7); experiment: biochemical; format: binding; conditions: for Kd: ITC
SmBRD3(2) [2] = target: T1, SmBRD3(2) (Schistosoma mansoni, UniProt A0A5K4ESD7); experiment: biochemical; format: binding
SmBRD3(2) [3] = target: T1, SmBRD3(2); experiment: Differential scanning fluorimetry (thermal shift), SmBRD3(2); format: binding; conditions: DSF; 50 μM compound
Experimental: Reported ΔTm values are the mean of two replicates.
Differential scanning fluorimetry assay
The differential scanning fluorimetry (DSF) or thermal stability assays were carried out following the protocol described by Niesen et al. and data were analysed as described previously.8 Thermal melting experiments were carried out using the Mx3005p real-time PCR machine (Agilent) and employing a protein concentration of 5 μM for the schistosomal bromodomains [SmBRD3(2), […]
the DMSO content was 0.5% (v/v). Buffer conditions were 50 mM HEPES buffer, pH 7.5, 500 mM NaCl and a 1:500 dilution of SYPRO® Orange (Invitrogen, CA) was used. The 96-well PCR plates were sealed and centrifuged for 2 min at 1000 rpm at 25 °C before measurement. The temperature was raised with a step of 1 °C per 30 s from 25 °C to 85 °C, and fluorescence readings were taken at each interval. […]
Isothermal titration calorimetry experiments were performed on a MicroCal PEAQ-ITC Automated or Manual (Malvern) and analysed with the MicroCal PEAQ-ITC Analysis software (Malvern 1.1.0.1262) using a single binding site model. […]
Male adult schistosomes were seeded into 24-well tissue culture plates (5 worms/well), dosed with compounds (20 µM in 0.2% DMSO v/v) and incubated for 24 h at 37 °C in 5% CO2. […] When ready for processing, worms were removed from the −80 °C and subject to 3 rounds of repeated snap freeze:thawing. […]

SmBRD3(1,2) [4] = experiment: Differential scanning fluorimetry (thermal shift), SmBRD3(1,2); conditions: DSF; 50 μM compound
Experimental: difference between the transition midpoints of sample and reference wells containing protein without inhibitor in the same plate. Reported ΔTm values are the mean of two replicates.
Isothermal titration calorimetry experiments were performed on a MicroCal PEAQ-ITC Automated or Manual (Malvern) and analysed with the MicroCal PEAQ-ITC Analysis software (Malvern 1.1.0.1262) using a single binding site model. For each experiment, the first data point was removed from the analysis. The proteins were dialysed at 4 °C overnight in a Slide-A-LyzerR MINI Dialysis Device (2000 MWCO; Thermo Scientific Life Technologies) into 50 mM HEPES, 150 mM NaCl containing 0.2% DMSO; pH 7.4. Proteins were centrifuged to remove aggregates (3 min, 3000 rpm, 25 °C).
Compounds were dissolved as a DMSO stock solution and diluted to the required concentration using dialysis buffer (DMSO free) and to a final DMSO concentration of 0.2% (unless otherwise specified). The cell was stirred at 750 rpm, reference power set to 5 μcal/s and temperature held at 25 °C. After an initial delay of 60 s, 19 x 2 μL injections (first injection 0.4 μL) were performed with a spacing of 180 s. […]

Chain of SmBRD3(1,2) (Schistosoma mansoni, UniProt A0A5K4ESD7) (A0A5K4ESD7 entry or part of it): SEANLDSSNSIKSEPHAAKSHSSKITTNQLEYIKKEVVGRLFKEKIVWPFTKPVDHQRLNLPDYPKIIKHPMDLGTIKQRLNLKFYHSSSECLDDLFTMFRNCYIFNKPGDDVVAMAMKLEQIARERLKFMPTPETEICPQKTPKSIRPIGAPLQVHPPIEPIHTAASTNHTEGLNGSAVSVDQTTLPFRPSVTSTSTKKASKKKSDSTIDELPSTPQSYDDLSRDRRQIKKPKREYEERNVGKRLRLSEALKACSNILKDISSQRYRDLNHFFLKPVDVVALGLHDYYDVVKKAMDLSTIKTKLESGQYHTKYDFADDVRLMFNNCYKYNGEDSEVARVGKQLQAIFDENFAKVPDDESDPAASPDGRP
T1 sequence (A0A5K4ESD7 entry or part of it): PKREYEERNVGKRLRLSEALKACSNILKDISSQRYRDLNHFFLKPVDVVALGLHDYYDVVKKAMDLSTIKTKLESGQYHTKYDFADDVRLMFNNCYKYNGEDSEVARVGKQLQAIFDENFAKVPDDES

In the case of `CC(=O)N1c2ccc(-c3ccc(C(=O)O)cc3)cc2[C@H](Nc2ccc(Cl)cc2)C[C@@H]1C` [I-BET726 (8), I-BET726, reference compound], the “N number, binding to SmBRD3(1,2)” value (SmBRD3(1,2) [1]; ITC stoichiometry, n=1 ± error of curve fit) is reported as 1.66 ± 6.7e-2, the Kd (SmBRD3(1,2) [1]; SmBRD3(1,2) Kd, n = 1 ± error of the curve fit) is reported as 1520 ± 520 nM and the Kd (SmBRD3(1,2) [1]; SmBRD3(1,2) pKd) is reported as 1580 nM. The “N number, binding to SmBRD3(2), Repeat 1” value (SmBRD3(2) [2]; ITC stoichiometry, Repeat 1) was 1.12 ± 4.2e-2, the “N number, binding to SmBRD3(2), Mean” value (SmBRD3(2) [2]; ITC stoichiometry, mean of repeats) was 1.12 ± 4.2e-2 and the Kd (SmBRD3(2) [2]; SmBRD3(2) Kd, ITC, single value ± error of the curve fit or mean of 2-3 repeats ± s.e.m.) was 1850 ± 361 nM. For the same compound, the Kd (SmBRD3(2) [2]; SmBRD3(2) Kd, Repeat 1, ITC, single run ± error of curve fit, Repeat 1) was 1850 ± 361 nM, the Kd (SmBRD3(2) [2]; SmBRD3(2) pKd, ITC) was 2000 nM and the “Thermal stabilisation (ΔTm) of SmBRD3(2)” value (SmBRD3(2) [3]) was “stabilize both SmBRD3(1,2) and SmBRD3(2)”. The “Thermal stabilisation (ΔTm) of SmBRD3(1,2)” value (SmBRD3(1,2) [4]) was “stabilize both SmBRD3(1,2) and SmBRD3(2)”.
